From patent US20230125429A1 (priority 2017, published 2023)

Tests used:
[1] = tested on: ERK phosphorylation; test: ERK phosphorylation in HepG2 cells (Western blot); assay type: cell-based, human; settings: serum-starved HepG2; trypsin 50 nM, Triptolide 1 µM, Triptonide 1 µM; 0-40 minutes
[2] = tested on: cAMP; test: Measurement of cAMP levels in HepG2 cells; assay type: cell-based, human; settings: treatment 2 hours after mimosine; Trypsin 50 nM, Triptonide 1 µM; serum-free
[3] = tested on: PKA; test: Measurement of PKA activity in HepG2 cells; assay type: cell-based, human; settings: one-hour treatment in regular medium (Trypsin 50 nM, Triptonide 1 µM); hour 9 and 10 after mimosine
[4] = tested on: mimosine-treated HepG2 cells; test: One-hour treatment of mimosine-treated HepG2 cells, live cell imaging; assay type: cell-based, human; settings: one-hour treatment
[5] = tested on: mimosine treated HepG2 cells; test: Cell cycle analysis by flow cytometry (PI staining); assay type: cell-based, human; settings: 2 µM, by 24 hours
[6] = tested on: wild-type keratinocytes; test: Growth of wild-type primary keratinocytes, short-term treatment; assay type: cell-based, mouse; settings: as high as 800 nM, one hour
[7] = tested on: Par2 knockout keratinocytes; test: Growth of Par2 knockout primary keratinocytes, one hour treatment; assay type: cell-based, mouse; settings: as high as 800 nM, one hour
[8] = tested on: wild-type keratinocytes; test: Growth of wild-type primary keratinocytes, continuous exposure; assay type: cell-based, mouse; settings: as low as 1.25 nM (lowest examined), continuous exposure
Experimental: (§1) For the neonatal mouse keratinocyte culture, the dorsal skins of neonatal wild type or Par2 knockout mice were harvested from wild type or Par2 knockout mice, respectively. The skins were incubated overnight at 4° C. in a 0.25% solution of trypsin (Life Technologies, USA) in phosphate-buffered saline (PBS) without calcium and magnesium. The epidermis was then separated from the adjoining dermis, and the dispersed epidermal cells were collected in suspension Eagle’s minimal essential medium (SMEM) (Life Technologies, USA) supplemented with glutamine and 8% calcium free fetal calf serum (FCS) (Life Technologies, USA). The cells were plated onto individual wells of 48 well plates (Corning, USA), which were pre-coated with collagen (Life Technologies, USA), at a density of 70,000 cells/well. The cell cultures were kept for 12 hours at 34° C. in a humidified incubator containing 8% CO2. Low calcium (0.05 mM) S-MEM, containing 8% FCS was then added to initiate the culture. The culture medium was changed every 2 days.
For primary hepatocytes, the seeded cells were monitored for up to 48 hours either without any treatment (as a control) or with various types of treatments. For primary keratinocytes, cells in 48-well plates were monitored either without any treatment or with various types of treatment for up to 96 hours. For HepG2, cells 96-well plates were monitored either without any treatment or with various types of treatments for up to 48 hours. The IncuCyte Zoom was set to take a set of images at fixed locations (4 per well for 96-well plates and 16 per well for 48-well plates and 12-well plates) every three hours.
To address this question, we took a genetic approach.

[9] = tested on: Par2 knockout keratinocytes; test: Growth of Par2 knockout primary keratinocytes, continuous exposure; assay type: cell-based, mouse; settings: as low as 1.25 nM (lowest examined)
Experimental: as §1, with “Low calcium (0.05 mM) S-MEM, containing 8% FCS was then added to initiate the culture. The culture medium was changed every 2 days.” left out
For primary hepatocytes, the seeded cells were monitored for up to 48 hours either without any treatment (as a control) or with various types of treatments. For primary keratinocytes, cells in 48-well plates were monitored either without any treatment or with various types of treatment for up to 96 hours. For HepG2, cells 96-well plates were monitored either without any treatment or with various types of treatments for up to 48 hours. […]

[10] = tested on: HepG2-GFP orthotopic xenograft tumor; settings: Triptonide 25 mg/kg by gavage every other day; Sorafenib intraperitoneal; n=10 per cohort
[11] = tested on: HepG2 cells; test: Blocking the AC-cAMP-PKA pathway, growth of HepG2 cells; assay type: cell-based, human; settings: Triptonide 1 µM, Vidarabine 10 µM, PKI 2.5 µM, alone or combined

## Trypsin
[1]
  levels of phosphorylated ERK: two-stage increase
[2]
  levels of cAMP: modest and transient elevations
[3]
  level of PKA activity around G2/M transition: reduced significantly

## CC(C)[C@]12O[C@H]1[C@@H]1O[C@]13[C@]1(O[C@H]1C[C@H]1C4=C(CC[C@@]13C)C(=O)OC4)[C@@H]2O [Triptolide, reference compound]
[4]; 1 µM, regardless of time
  growth and mitotic catastrophe: growth inhibitory, but did not cause mitotic catastrophe
[4]; 2 µM, at 0 and 2 hours after mimosine treatment
  growth and chromatin condensation: not only growth inhibitory, but also caused chromatin condensation
[5]
  sub-G1 (<2N, apoptotic) population: significant peaks of the sub-G1
[6]
  growth inhibitory effect on wild-type keratinocytes: did not have any significant growth inhibitory effect
[7]
  growth inhibitory effect on Par2 knockout keratinocytes: did not have any significant growth inhibitory effect
[8]
  lethality for wild-type keratinocytes: complete lethality
[9]
  lethality for Par2 knockout keratinocytes: complete lethality
[1]
  levels of phosphorylated ERK: no significant effects

## CNC(=O)c1cc(Oc2ccc(NC(=O)Nc3ccc(Cl)c(C(F)(F)F)c3)cc2)ccn1 [Sorafenib, reference compound]
[10]
  tumor specific (GFP) signals: lower intensities of the tumor specific signals at all time points

## Nc1ncnc2c1ncn2[C@@H]1O[C@H](CO)[C@@H](O)[C@@H]1O [Vidarabine, reference compound]
[11]
  effect on growth of HepG2 cells: no significant effects
